Here are results for 21 compounds from patent US20250179045A1, “LPAR1 ANTAGONISTS AND USES THEREOF” (Contineum Therapeutics, Inc., priority 2021, published 2025).

For this test, the target named is human LPA1 (Homo sapiens, UniProt Q92633). Description: In vitro functional assay of lysophosphatidic acid receptor 1 activity (calcium flux). Format: cell-based. Conditions: B103 cells stably expressing human LPA1; Fluo-4 NW calcium flux after lysophosphatidic acid (18:1) at EC80; compounds 100 pM to 10 μM; read-out: LPA1 IC50. The method, boiled down: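 B103 cells stably expressing human LPA1 plated onto compound for 24 h at 37 °C, loaded with Fluo-4 NW dye, re-exposed to compound (30 min 37 °C plus 30 min room temp).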
human LPA1, sequence (Q92633 whole entry): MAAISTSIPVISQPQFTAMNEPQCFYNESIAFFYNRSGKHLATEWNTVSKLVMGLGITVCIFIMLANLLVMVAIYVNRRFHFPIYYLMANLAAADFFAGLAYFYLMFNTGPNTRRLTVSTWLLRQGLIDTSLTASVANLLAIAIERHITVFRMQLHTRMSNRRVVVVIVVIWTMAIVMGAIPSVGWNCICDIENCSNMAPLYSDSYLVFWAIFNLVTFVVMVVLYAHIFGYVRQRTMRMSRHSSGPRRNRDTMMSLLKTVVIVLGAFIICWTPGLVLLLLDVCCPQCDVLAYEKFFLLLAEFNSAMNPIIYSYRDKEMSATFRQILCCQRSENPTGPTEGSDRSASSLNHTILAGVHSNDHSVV
(Calcium assays in cells follow changes in intracellular calcium, usually with a dye or a luminescent sensor.)
As to `COc1ccc(NC(=O)C2(c3ccccc3C(C)C)CCC(=O)CC2)c(OC(F)F)n1` [Example 80, N-(2-(difluoromethoxy)-6-methoxypyridin-3-yl)-1-(2-isopropylphenyl)-4-oxocyclohexane-1-carboxamide], the IC50 – broadly, the point on the concentration scale where inhibition reaches its midpoint – was 10 to 100 nM.

`Cc1ccc(NC(=O)C2(c3ccccc3C(C)C)CC(N(C)S(C)(=O)=O)C2)c(OC(F)F)n1` (stereo not drawn) [Example 44, N-(2-(difluoromethoxy)-6-methylpyridin-3-yl)-1-(2-isopropylphenyl)-3-(N-methylmethylsulfonamido)cyclobutane-1-carboxamide]: the IC50 is 100 to 1000 nM.

As to `CC(C)c1ccccc1C1(C(=O)Nc2cnc(C(F)F)cc2OC(F)F)CC(=O)N(C)C1` (stereo not drawn) [Example 4, N-(4-(difluoromethoxy)-6-(difluoromethyl)pyridin-3-yl)-3-(2-isopropylphenyl)-1-methyl-5-oxopyrrolidine-3-carboxamide], the 50% inhibitory concentration (IC50) was in the range of 100 to 1000 nM.

As to `COc1nc(NC(=O)C2(c3ccccc3C(C)C)CNC(=O)C2)c(OC(F)F)cc1Cl` (stereo not drawn) [Example 12, N-(5-chloro-3-(difluoromethoxy)-6-methoxypyridin-2-yl)-3-(2-isopropylphenyl)-5-oxopyrrolidine-3-carboxamide], the half-maximal inhibitory concentration (IC50) was more than 1000 nM.

On to `COc1cc(Br)ccc1NC(=O)C1(c2ccccc2C(C)C)CNC(=O)C1` (stereo not drawn) [Example 104, N-(4-bromo-2-methoxyphenyl)-3-(2-isopropylphenyl)-5-oxopyrrolidine-3-carboxamide], for which the concentration for half-maximal inhibition (IC50) lay within 10 to 100 nM.

With `COc1ccc(NC(=O)C2(c3ccccc3C(C)C)CC(O)(C(F)(F)C(=O)O)C2)c(OC(F)F)n1` (single isomer, unassigned) [Example 54-isomer B, 2-(3-((2-(difluoromethoxy)-6-methoxypyridin-3-yl)carbamoyl)-1-hydroxy-3-(2-isopropylphenyl)cyclobutyl)-2,2-difluoroacetic acid], the IC50 lay in the range of 10 to 100 nM.

Consider `CC(=O)N(C)C1CC(C(=O)Nc2ccc(C)nc2OC(F)F)(c2ccccc2C(C)C)C1` (mixture of isomers) [Example 43, N-(2-(difluoromethoxy)-6-methylpyridin-3-yl)-1-(2-isopropylphenyl)-3-(N-methylacetamido)cyclobutane-1-carboxamide], for which the IC50 is 10 to 100 nM.

`COc1cc(C)ccc1NC(=O)C1(c2ccccc2C(C)C)CNC(=O)C1` (single isomer, unassigned) [Example 102-isomer B, 3-(2-isopropylphenyl)-N-(2-methoxy-4-methylphenyl)-5-oxopyrrolidine-3-carboxamide]: the IC50 was more than 1000 nM.

In the case of `Cc1ccc(NC(=O)C2(c3ccccc3C(C)C)CC(CS(C)(=O)=O)C2)c(OC(F)F)n1` (stereo not drawn) [Example 64, N-(2-(difluoromethoxy)-6-methylpyridin-3-yl)-1-(2-isopropylphenyl)-3-((methylsulfonyl)methyl)cyclobutane-1-carboxamide], the concentration for half-maximal inhibition (IC50) was 100 to 1000 nM.

Turning to `Cc1ccc(NC(=O)C2(c3ccccc3C(C)C)CC(C(=O)N(C)C)C2)c(OC(F)F)n1` (stereo not drawn) [Example 66, N^1-(2-(difluoromethoxy)-6-methylpyridin-3-yl)-1-(2-isopropylphenyl)-N^3,N^3-dimethylcyclobutane-1,3-dicarboxamide], the 50% inhibitory concentration (IC50) fell in the range of 100 to 1000 nM.

Turning to `COc1ccc(NC(=O)C2(c3ccccc3C(C)C)CCC(NC(C)=O)CC2)c(OC(F)F)n1` (mixture of isomers) [Example 85, 4-acetamido-N-(2-(difluoromethoxy)-6-methoxypyridin-3-yl)-1-(2-isopropylphenyl)cyclohexane-1-carboxamide], the concentration for half-maximal inhibition (IC50) lay within 100 to 1000 nM.

For the compound `CNS(=O)(=O)C1CCC(C(=O)Nc2ccc(OC)nc2OC(F)F)(c2ccccc2C(C)C)CC1` (stereo not drawn) [Example 99, N-(2-(difluoromethoxy)-6-methoxypyridin-3-yl)-1-(2-isopropylphenyl)-4-(N-methylsulfamoyl)cyclohexane-1-carboxamide], the IC50 is 100 to 1000 nM.

For the compound `COc1cc(Cl)ncc1NC(=O)C1(c2ccccc2C(C)C)COC1` [Example 19, N-(6-chloro-4-methoxypyridin-3-yl)-3-(2-isopropylphenyl)oxetane-3-carboxamide], the IC50 fell in the range of 10 to 100 nM.

`Cc1cc(OC(F)F)c(NC(=O)C2(c3ccccc3C(C)C)CC(O)(C(F)(F)C(=O)O)C2)cn1` (single isomer, unassigned) [Example 94-isomer A, 2-(3-((4-(difluoromethoxy)-6-methylpyridin-3-yl)carbamoyl)-1-hydroxy-3-(2-isopropylphenyl)cyclobutyl)-2,2-difluoroacetic acid]: the 50% inhibitory concentration (IC50) lay in the range of 100 to 1000 nM.

`COc1cc(Cl)cnc1NC(=O)C1(c2ccccc2C(C)C)COC1` [Example 20, N-(5-chloro-3-methoxypyridin-2-yl)-3-(2-isopropylphenyl)oxetane-3-carboxamide]: the IC50 is more than 1000 nM.

Take `Cc1ccc(NC(=O)C2(c3ccccc3C(C)C)CC(CO)C2)c(OC(F)F)n1` (stereo not drawn) [Example 59, N-(2-(difluoromethoxy)-6-methylpyridin-3-yl)-3-(hydroxymethyl)-1-(2-isopropylphenyl)cyclobutane-1-carboxamide]: the IC50 fell in the range of 10 to 100 nM.

Take `COc1ccc(NC(=O)C2(c3ccccc3C(C)C)CCC(S(N)(=O)=O)CC2)c(OC(F)F)n1` (stereo not drawn) [Example 97, N-(2-(difluoromethoxy)-6-methoxypyridin-3-yl)-1-(2-isopropylphenyl)-4-sulfamoylcyclohexane-1-carboxamide]: the half-inhibitory concentration (IC50) was in the range of 100 to 1000 nM.

For `Cc1ccc(NC(=O)C2(c3ccccc3C(C)C)CC(Cn3ccnn3)C2)c(OC(F)F)n1` (stereo not drawn) [Example 72, 3-((1H-1,2,3-triazol-1-yl)methyl)-N-(2-(difluoromethoxy)-6-methylpyridin-3-yl)-1-(2-isopropylphenyl)cyclobutane-1-carboxamide], the IC50 was 10 to 100 nM.

Consider `CC(C)c1ccccc1C1(C(=O)Nc2ccc(F)cc2OC(F)F)COC1` [Example 27, N-(2-(difluoromethoxy)-4-fluorophenyl)-3-(2-isopropylphenyl)oxetane-3-carboxamide], for which the IC50 is 10 to 100 nM.

For `COc1ccc(NC(=O)C2(c3ccccc3C(C)C)CCC(C)(O)CC2)c(OC(F)F)n1` (single isomer, unassigned) [Example 83-isomer B, N-(2-(difluoromethoxy)-6-methoxypyridin-3-yl)-4-hydroxy-1-(2-isopropylphenyl)-4-methylcyclohexane-1-carboxamide], the IC50 lay in the range of 10 to 100 nM.

For `CC(C)c1ccccc1C1(C(=O)Nc2ccc(OC(F)F)nc2Cl)CNC(=O)C1` (stereo not drawn) [Example 107, N-(2-chloro-6-(difluoromethoxy)pyridin-3-yl)-3-(2-isopropylphenyl)-5-oxopyrrolidine-3-carboxamide], the IC50 is more than 1000 nM.
